Data set [1] concerns the target T1, USP7 (Homo sapiens (Human), UniProt Q93009). Put plainly: Target engagement assay-HTRF, competition with HA-Ub-VPS probe in HEK293 cells stably expressing Flag-tagged USP7. Format: cell-based. The settings on record: HEK293 stable clone M6C5, 2 h treatment; read-out: Cellular target engagement: HEK293 Stable clone M6C5 USP7 IC50. As to the method:
HEK293 cells stably expressing Flag-tagged USP7 were treated with vehicle (DMSO) or compound (using 50 μM starting concentration and 11 dp using 1:3 serial dilution) for 2 h and subsequently lysed on ice and homogenised. Cell lysate and HA-Ub-VPS probe was then added to a white flat bottomed 384 well plate (Greiner) to a total volume of 10 μL and incubated for 40 min. 10 μL of D2 and Tb detection antibodies were subsequently added to give a final assay volume of 20 μL. Following incubation, HTRF were measured using a Pherastar FSX (BMG Labtech) exciting at 337 nm and measuring the emission at 620/665 nm. The HTRF ratiometric signal was derived and subsequently normalised to the lysate only controls. Data were plotted and fitted, and the concentrations resulting in 50% inhibition (IC50) were calculated using the non-linear regression curve fitting model using GraphPad Prism. IC50 values for the inhibitors of the invention are compiled in Table 1 above and represent the average of at least duplicate experiments.

Data set [2] concerns the target T1, USP7. In words: USP7 fluorescence polarisation (FP) assay with ubiquitin-Lys-TAMRA substrate. It is filed as biochemical. (Polarisation of emitted light reports the rotation of a fluorescent probe.)
Data set [3] in a line: CLint/CLhep estimates using liver microsomes (human). Format: in vitro ADME. As to the method: (§1) Test compounds (final concentration=1 μM; final DMSO concentration=0.1%) were incubated in 0.1M phosphate buffer pH 7.4 with liver microsomes (human, mouse, rat or dog; 0.5 mg of protein/mL) at 37° C. Reactions were started by addition of NADPH in 0.1M phosphate buffer pH 7.4 (final concentration 1 mM). 40 μL aliquots were removed at 3, 6, 10, 15, 20, 30, 40 and 50 minutes. Reactions were quenched in 80 μL of ice-cold methanol. Samples were subsequently frozen overnight then centrifuged at 3500 rpm for 20 minutes at 4° C. The supernatants were removed and transferred into analytical plates and analysed by LC/MS/MS.
(§2) All samples were analysed on a Waters Acquity I-Class coupled to a Waters Xevo TQD mass spectrometer. A Waters BEH C18 2.1×50 mm 1.7 μm column was used and mobile phases were water and methanol containing 0.1% formic acid as modifier. Analysis was by multiple reaction monitoring and conditions were optimised for each test compound.
(§3) From a plot of In peak area against time, the gradient of the line is determined.
(§4) Subsequently, half-life and intrinsic clearance are calculated using the equations below: […]
(§5) The CLhep was calculated as follows: […]
(§6) Where CLint (mL/min/kg) is the intrinsic clearance scaled to a whole liver and Qh is hepatic liver blood flow.

Data set [4] can be described thus: CLint/CLhep estimates using liver microsomes (rat). It is filed as in vitro ADME. The protocol:
as §1, §2, §3, §4, §5, §6

The nature of data set [5]: CLint/CLhep estimates using liver microsomes (dog). It is filed as in vitro ADME. As to the method: as §1, §2, §3, §4, §5, §6
A short description of data set [6]: Kinetic solubility in PBS buffer. Format: physicochemical. The settings on record: aqueous buffer, kinetic from dmso stock; PBS buffer pH 7.4. The protocol:
Test compounds (5 μL; 10 mM DMSO stock) were added to 245 μL of PBS buffer pH 7.4 (Dulbecco A) in a Millipore MultiScreen® Solubility Filter plate and mixed at 300 rpm at room temperature on a plate shaker for 90 minutes. Meanwhile 5-points calibration curves for each compound were established in a mixture of acetonitrile/PBS buffer (top concentration 200 μM). After filtration and matrix match, the calibration and assay plates were analysed on a BMG Labtech CLARIOstar plate reader (240-400 nm). Final concentration of the test compound in the filtrate was calculated using the slope of the calibration curve.

Data set [7] is described as follows: Pharmacokinetic (PK) parameters in mouse. The settings on record: for AUC(0-inf) / half-life / Vd: blood; for Vd: read-out: Vss. Format: in vivo, BALB/c mouse.
Data set [8] can be described thus: CLint/CLhep estimates using liver microsomes (mouse). Format: in vitro ADME. The protocol: as §1, §2, §3, §4, §5, §6
[9] abbreviates: average of at least duplicate experiments, read-out: Biochemical: USP7 IC50.
Where [10] appears, read: biochemical inhibition, read-out: USP7 IC50 activity (Table 3a, classes).
The mark [11] stands for this setting: biochemical inhibition, unit not given in Table 3b (Table 1 and key of Table 3a use μM), read-out: USP7 IC50 activity (Table 3b).

The structures appear in SMILES notation. Converted amounts (≈) assume the structure as drawn.

T1 sequence (Q93009 whole entry): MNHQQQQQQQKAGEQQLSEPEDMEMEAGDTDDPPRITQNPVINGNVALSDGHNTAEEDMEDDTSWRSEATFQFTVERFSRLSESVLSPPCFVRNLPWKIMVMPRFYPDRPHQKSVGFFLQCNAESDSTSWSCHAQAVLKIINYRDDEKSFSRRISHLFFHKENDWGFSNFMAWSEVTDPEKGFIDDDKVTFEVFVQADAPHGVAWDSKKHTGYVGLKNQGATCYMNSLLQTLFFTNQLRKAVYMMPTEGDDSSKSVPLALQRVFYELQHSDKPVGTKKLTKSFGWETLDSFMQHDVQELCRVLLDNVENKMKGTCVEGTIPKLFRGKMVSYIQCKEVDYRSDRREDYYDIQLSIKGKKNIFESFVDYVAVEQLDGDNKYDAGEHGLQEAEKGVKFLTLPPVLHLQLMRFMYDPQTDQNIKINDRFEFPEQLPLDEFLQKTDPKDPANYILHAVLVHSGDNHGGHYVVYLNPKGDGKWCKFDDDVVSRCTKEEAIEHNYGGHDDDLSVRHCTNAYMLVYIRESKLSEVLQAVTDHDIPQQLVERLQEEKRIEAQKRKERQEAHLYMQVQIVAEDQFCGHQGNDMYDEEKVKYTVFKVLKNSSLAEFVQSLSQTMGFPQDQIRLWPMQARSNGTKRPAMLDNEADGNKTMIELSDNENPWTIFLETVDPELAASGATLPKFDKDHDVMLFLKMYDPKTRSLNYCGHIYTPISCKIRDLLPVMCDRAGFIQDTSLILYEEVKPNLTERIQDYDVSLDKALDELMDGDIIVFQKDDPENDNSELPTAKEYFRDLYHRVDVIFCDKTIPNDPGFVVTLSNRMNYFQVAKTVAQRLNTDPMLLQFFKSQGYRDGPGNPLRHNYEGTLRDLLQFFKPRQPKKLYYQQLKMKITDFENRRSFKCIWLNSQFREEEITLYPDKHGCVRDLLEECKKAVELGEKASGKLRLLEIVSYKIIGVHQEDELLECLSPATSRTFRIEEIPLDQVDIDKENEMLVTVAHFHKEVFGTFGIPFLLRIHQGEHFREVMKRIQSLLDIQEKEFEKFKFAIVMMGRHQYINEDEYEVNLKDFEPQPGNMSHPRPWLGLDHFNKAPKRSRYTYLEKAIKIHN

What is called IC50 is the midpoint of a concentration-inhibition curve. With `O=C(C[C@H](c1ccccc1)C(F)F)N1CCC(O)(Cn2cnc3c(cc(Cl)n3-c3ccc([C@H]4COCCN4)cc3)c2=O)CC1` (single isomer, unassigned) [Example 82], the IC50 on USP7 [1] was 9.4 nM; on USP7 [2] (setting [9]), 0.006 µM; at USP7 [2] (setting [10]) it was less than 0.1 µM; at USP7 [2] (setting [11]), 0.006 µM.
`Cc1cc(-n2c(Cl)cc3c(=O)n(CC4(O)CCN(C(=O)C[C@H](c5ccccc5)C(F)(F)F)CC4)cnc32)ccc1[C@H]1CO[C@H](C)CN1` [Example 14, 6-Chloro-3-((4-hydroxy-1-((R)-4,4,4-trifluoro-3-phenylbutanoyl)piperidin-4-yl)methyl)-7-(3-methyl-4-((3S,6R)-6-methylmorpholin-3-yl)phenyl)-3,7-dihydro-4H-pyrrolo[2,3-d]pyrimidin-4-one]: the IC50 on USP7 [1] is 40 nM; on USP7 [2] (setting [9]), 0.018 µM; on USP7 [2] (setting [10]), less than 0.1 µM; at USP7 [2] (setting [11]), 0.018 µM.
For orientation: kinetic solubility means the concentration staying in solution when a stock, usually in DMSO, is diluted into the medium. For orientation: AUC(0-inf) means the area under the concentration-time curve extrapolated to infinity. By half-life is commonly meant the time in which the quantity being followed falls by half. Consider `C[C@H]1CN[C@H](c2ccc(-n3c(Cl)cc4c(=O)n(CC5(O)CCN(C(=O)c6ccc(F)cc6)CC5)cnc43)cc2)CO1` [Example 21, 6-Chloro-3-((1-(4-fluorobenzoyl)-4-hydroxypiperidin-4-yl)methyl)-7-(4-((3R,6S)-6-methylmorpholin-3-yl)phenyl)-3,7-dihydro-4H-pyrrolo[2,3-d]pyrimidin-4-one], for which the “Liver Microsomes: CLhep Human” value in data set [3] is recorded as 3.2 mL/min/kg. In addition, the “Liver Microsomes: CLhep Rat” value in data set [4] is given as 6.5 mL/min/kg. Besides, on USP7 [1], the IC50 came to 180 nM. Besides, the “Liver Microsomes: CLhep Dog” value in data set [5] is 4.5 mL/min/kg. For the same molecule, the kinetic solubility at 90 min in data set [6] was found to be 203 µM (≈ 118 µg/mL). Besides, at USP7 [2] (setting [9]), the IC50 worked out at 0.11 µM. In addition, the IC50 at USP7 [2] (setting [10]) is 0.1 to 0.25 µM. On USP7 [2] (setting [11]), the IC50 came out at 0.108 µM. In data set [7] (BALB/c mouse IV 1 mg/kg), the CLb is given as 35.1 mL/min/kg, the AUC(0-inf) worked out at 479 ng·h/mL, the half-life is 2.09 h and the Vd came to 3.89 L/kg. In data set [7] (BALB/c mouse PO 3 mg/kg), the F amounted to 40.3% and the AUC(0-inf) was found to be 593 ng·h/mL. Besides, the “Liver Microsomes: CLhep Mouse” value in data set [8] is on record as 19.1 mL/min/kg.
With `CC1(C(=O)N2CCC(O)(Cn3cnc4c(cc(Cl)n4-c4cccc(N5CCOCC5)c4)c3=O)CC2)CC1` [Comparative Example, reference compound], the “Liver Microsomes: CLhep Human” value in data set [3] is listed as 14.5 mL/min/kg. Moreover, in data set [4], the “Liver Microsomes: CLhep Rat” value is recorded as 27 mL/min/kg. In addition, the IC50 at USP7 [1] was greater than 50000 nM; on USP7 [2] (setting [9]), 0.19 µM. For the same molecule, the “Liver Microsomes: CLhep Dog” value in data set [5] is reported as 22.3 mL/min/kg. This molecule had a solubility (kinetic) at 90 min in data set [6] of 151 µM (≈ 79.4 µg/mL). Also, the “Liver Microsomes: CLhep Mouse” value in data set [8] was 63.9 mL/min/kg.
In the case of `CC[C@H]1CN[C@H](c2ccc(-n3c(Cl)cc4c(=O)n(CC5(O)CCN(C(=O)[C@]6(C)C[C@H]6C(F)(F)F)CC5)cnc43)cc2)CO1` (single isomer, unassigned) [Example 66, 6-Chloro-7-(4-((3R,6S)-6-ethylmorpholin-3-yl)phenyl)-3-((4-hydroxy-1-((1 S,2S)-1-methyl-2-(trifluoromethyl)cyclopropane-1-carbonyl)piperidin-4-yl)methyl)-3,7-dihydro-4H-pyrrolo[2,3-d]pyrimidin-4-one or 6-chloro-7-(4-((3R,6S)-6-ethylmorpholin-3-yl)phenyl)-3-((4-hydroxy-1-((1R,2R)-1-methyl-2-(trifluoromethyl)cyclopropane-1-carbonyl)piperidin-4-yl)methyl)-3,7-dihydro-4H-pyrrolo[2,3-d]pyrimidin-4-one], the IC50 at USP7 [1] was 74 nM; at USP7 [2] (setting [9]), 0.063 µM; at USP7 [2] (setting [10]), less than 0.1 µM; at USP7 [2] (setting [11]), 0.063 µM.
As for `C[C@H]1CN[C@H](c2ccc(-n3c(Cl)cc4c(=O)n(CC5(O)CCN(C(=O)[C@]6(C)C[C@H]6C(F)(F)F)CC5)cnc43)cc2)CO1` (single isomer, unassigned) [Example 32, 6-Chloro-3-((4-hydroxy-1-((1S,2S)-1-methyl-2-(trifluoromethyl)cyclopropane-1-carbonyl)piperidin-4-yl)methyl)-7-(4-((3R,6S)-6-methylmorpholin-3-yl)phenyl)-3,7-dihydro-4H-pyrrolo[2,3-d]pyrimidin-4-one or 6-chloro-3-((4-hydroxy-1-((1R,2R)-1-methyl-2-(trifluoromethyl)cyclopropane-1-carbonyl)piperidin-4-yl)methyl)-7-(4-((3R,6S)-6-methylmorpholin-3-yl)phenyl)-3,7-dihydro-4H-pyrrolo[2,3-d]pyrimidin-4-one], the “Liver Microsomes: CLhep Human” value in data set [3] is 5.8 mL/min/kg. Further, the “Liver Microsomes: CLhep Rat” value in data set [4] is reported as 6.5 mL/min/kg. Besides, the IC50 on USP7 [1] worked out at 130 nM. Besides, the “Liver Microsomes: CLhep Dog” value in data set [5] is 4.5 mL/min/kg. This molecule displayed a kinetic solubility at 90 min in data set [6] of 197 µM (≈ 120 µg/mL). In addition, the IC50 at USP7 [2] (setting [9]) was determined as 0.048 µM. The IC50 on USP7 [2] (setting [10]) is less than 0.1 µM. In addition, the IC50 at USP7 [2] (setting [11]) was determined as 0.048 µM. In data set [7] (BALB/c mouse IV 1 mg/kg), the CLb is 28.2 mL/min/kg, the AUC(0-inf) was 591 ng·h/mL, the half-life was 3.5 h and the Vd turned out to be 5.49 L/kg. In data set [7] (BALB/c mouse PO 3 mg/kg), this molecule returned an F of 116% and an AUC(0-inf) of 2100 ng·h/mL. Also, the “Liver Microsomes: CLhep Mouse” value in data set [8] is given as 11.5 mL/min/kg.
